In patent EP4745135A1 (Gluetacs Therapeutics (Shanghai) Co., Ltd., priority 2023, dated 2025):
Values belong to the compound of their own block, whether it stands above or below them.

Tests used:
[1] = system: Human multiple myeloma peripheral blood B lymphocyte cell (RPMI-8226); test: Tumor cell proliferation inhibition (CellTiter-Meiluncell luminescent cell viability assay); conditions: RPMI-8226, 96 h; for inhibition at 0.01 µM: read-out: Inhibition Rate at 10 nM (%); for inhibition at 0.5 µM: read-out: Inhibition Rate at 500 nM (%)
[2] = system: Human multiple myeloma cell (MM.1S); test: as above; conditions: Homo sapiens, MM1.S, 96 h; for inhibition at 0.01 µM: read-out: Inhibition Rate at 10 nM (%); for inhibition at 0.5 µM: read-out: Inhibition Rate at 500 nM (%)
[3] = biological target: T1, human Cereblon WT GST-tagged protein (Homo sapiens, UniProt Q96SW2); test: CRBN-binding affinity, HTRF (CEREBLON BINDING kit); conditions: for inhibition at 0.5 µM: read-out: Inhibition Rate at 0.5 µM (%); for inhibition at 2 µM: read-out: Inhibition Rate at 2 µM (%)
T1 construct: purchased CISBIO 64BDCRBNPEH
T1 sequence (Q96SW2 whole entry): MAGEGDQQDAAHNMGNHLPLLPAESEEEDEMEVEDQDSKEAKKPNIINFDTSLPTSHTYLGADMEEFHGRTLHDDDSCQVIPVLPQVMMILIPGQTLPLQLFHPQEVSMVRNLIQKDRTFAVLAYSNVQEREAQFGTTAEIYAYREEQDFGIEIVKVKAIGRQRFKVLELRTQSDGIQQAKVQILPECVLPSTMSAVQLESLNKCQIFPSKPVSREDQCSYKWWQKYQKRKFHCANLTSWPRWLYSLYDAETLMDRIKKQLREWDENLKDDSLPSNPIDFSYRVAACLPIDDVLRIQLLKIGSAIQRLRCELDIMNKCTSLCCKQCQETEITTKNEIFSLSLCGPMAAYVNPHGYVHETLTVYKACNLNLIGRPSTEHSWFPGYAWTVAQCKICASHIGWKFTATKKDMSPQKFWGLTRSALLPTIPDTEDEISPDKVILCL

CK1α = biological target: T2, CK1α (Homo sapiens, UniProt P48729+Q96SW2); test: Western blot, degradation of substrate protein in hPBMCs; type: cell-based
T2 construct: effects of the compounds of the present disclosure on the expression of target proteins in cells; endogenous in cells; host or cells: human PBMCs (Milecell Biotechnologies)
T2 sequence (P48729 whole entry): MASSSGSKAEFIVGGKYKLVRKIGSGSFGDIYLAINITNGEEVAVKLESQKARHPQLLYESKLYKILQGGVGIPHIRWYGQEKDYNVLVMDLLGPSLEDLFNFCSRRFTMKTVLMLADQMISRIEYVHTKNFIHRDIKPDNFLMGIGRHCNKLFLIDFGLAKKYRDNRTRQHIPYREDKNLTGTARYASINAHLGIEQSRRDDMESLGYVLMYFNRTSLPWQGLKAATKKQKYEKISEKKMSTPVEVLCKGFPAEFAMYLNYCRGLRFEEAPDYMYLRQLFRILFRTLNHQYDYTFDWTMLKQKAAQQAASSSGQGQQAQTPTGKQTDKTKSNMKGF
T2 sequence (Q96SW2 whole entry): as the sequence (Q96SW2 whole entry) above
T2 sequence (Q16531 whole entry partner): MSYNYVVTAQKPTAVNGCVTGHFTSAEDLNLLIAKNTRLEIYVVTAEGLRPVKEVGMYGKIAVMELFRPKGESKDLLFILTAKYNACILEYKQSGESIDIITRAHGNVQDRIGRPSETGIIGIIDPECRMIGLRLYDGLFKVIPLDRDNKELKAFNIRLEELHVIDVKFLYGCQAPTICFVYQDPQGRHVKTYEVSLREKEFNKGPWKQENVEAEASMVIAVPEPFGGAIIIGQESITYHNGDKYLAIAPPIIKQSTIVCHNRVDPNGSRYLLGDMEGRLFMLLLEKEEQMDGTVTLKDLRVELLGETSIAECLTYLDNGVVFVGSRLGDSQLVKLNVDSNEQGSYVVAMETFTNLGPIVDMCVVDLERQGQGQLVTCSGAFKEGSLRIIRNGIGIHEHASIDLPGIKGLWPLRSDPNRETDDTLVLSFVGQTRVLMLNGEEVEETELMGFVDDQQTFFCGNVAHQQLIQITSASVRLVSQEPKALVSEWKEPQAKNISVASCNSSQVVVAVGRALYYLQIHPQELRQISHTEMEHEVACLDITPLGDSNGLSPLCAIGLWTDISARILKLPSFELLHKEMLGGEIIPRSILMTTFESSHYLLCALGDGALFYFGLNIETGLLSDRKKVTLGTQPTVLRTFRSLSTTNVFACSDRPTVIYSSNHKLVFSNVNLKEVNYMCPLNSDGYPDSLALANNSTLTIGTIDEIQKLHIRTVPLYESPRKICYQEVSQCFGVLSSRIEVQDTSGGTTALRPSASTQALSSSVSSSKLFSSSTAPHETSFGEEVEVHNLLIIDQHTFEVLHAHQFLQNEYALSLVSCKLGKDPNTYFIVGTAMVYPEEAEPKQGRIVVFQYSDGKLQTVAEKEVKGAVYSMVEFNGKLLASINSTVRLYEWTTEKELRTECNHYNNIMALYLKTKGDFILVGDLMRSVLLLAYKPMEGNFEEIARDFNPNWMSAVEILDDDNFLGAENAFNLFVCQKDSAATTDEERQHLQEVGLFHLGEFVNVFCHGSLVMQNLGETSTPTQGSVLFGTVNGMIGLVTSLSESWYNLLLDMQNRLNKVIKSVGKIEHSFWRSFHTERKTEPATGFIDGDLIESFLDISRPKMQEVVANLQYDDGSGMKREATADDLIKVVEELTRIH

IKZF3 = biological target: T3, IKZF3 (Homo sapiens, UniProt Q96SW2+Q9UKT9); test: as above; type: cell-based
T3 construct: effects of the compounds of the present disclosure on the expression of target proteins in cells; endogenous in cells; host or cells: human PBMCs (Milecell Biotechnologies)
T3 sequence (Q9UKT9 whole entry): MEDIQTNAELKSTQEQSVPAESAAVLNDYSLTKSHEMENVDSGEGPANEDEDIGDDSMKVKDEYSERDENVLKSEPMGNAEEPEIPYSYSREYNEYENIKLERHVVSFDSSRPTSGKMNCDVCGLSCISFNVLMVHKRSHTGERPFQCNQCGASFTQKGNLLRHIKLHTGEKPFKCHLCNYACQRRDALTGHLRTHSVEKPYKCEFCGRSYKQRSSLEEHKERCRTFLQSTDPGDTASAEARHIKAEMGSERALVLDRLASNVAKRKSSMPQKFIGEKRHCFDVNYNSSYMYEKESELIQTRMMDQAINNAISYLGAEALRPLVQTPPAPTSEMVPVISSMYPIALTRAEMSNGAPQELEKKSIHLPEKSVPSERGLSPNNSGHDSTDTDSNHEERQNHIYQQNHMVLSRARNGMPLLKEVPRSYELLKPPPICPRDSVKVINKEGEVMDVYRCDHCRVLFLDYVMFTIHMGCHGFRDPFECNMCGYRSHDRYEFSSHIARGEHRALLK
T3 sequence (Q96SW2 whole entry): as the sequence (Q96SW2 whole entry) above
T3 sequence (Q16531 whole entry partner): as the sequence (Q16531 whole entry partner) above

IKZF2 = biological target: T4, IKZF2 (Homo sapiens, UniProt Q96SW2+Q9UKS7); test: as above; type: cell-based
T4 construct: effects of the compounds of the present disclosure on the expression of target proteins in cells; endogenous in cells; host or cells: human PBMCs (Milecell Biotechnologies)
T4 sequence (Q9UKS7 whole entry): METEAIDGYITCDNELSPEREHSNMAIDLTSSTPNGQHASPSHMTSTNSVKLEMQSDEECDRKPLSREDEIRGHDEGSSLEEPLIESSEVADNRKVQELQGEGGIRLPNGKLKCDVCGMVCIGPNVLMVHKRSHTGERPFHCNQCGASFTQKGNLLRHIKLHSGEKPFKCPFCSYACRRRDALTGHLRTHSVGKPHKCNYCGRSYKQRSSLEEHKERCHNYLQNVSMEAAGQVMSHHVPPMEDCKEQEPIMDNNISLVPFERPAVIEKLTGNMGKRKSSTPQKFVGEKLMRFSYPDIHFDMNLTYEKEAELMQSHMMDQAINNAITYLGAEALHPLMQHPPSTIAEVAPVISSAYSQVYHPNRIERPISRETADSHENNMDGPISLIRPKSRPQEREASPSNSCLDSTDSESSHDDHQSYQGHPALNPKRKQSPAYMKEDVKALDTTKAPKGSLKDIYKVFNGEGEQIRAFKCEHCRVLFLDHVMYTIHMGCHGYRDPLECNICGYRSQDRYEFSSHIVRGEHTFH
T4 sequence (Q96SW2 whole entry): as the sequence (Q96SW2 whole entry) above
T4 sequence (Q16531 whole entry partner): as the sequence (Q16531 whole entry partner) above

IKZF1 = biological target: T5, IKZF1 (Homo sapiens, UniProt Q13422+Q96SW2); test: as above; type: cell-based
T5 construct: effects of the compounds of the present disclosure on the expression of target proteins in cells; endogenous in cells; host or cells: human PBMCs (Milecell Biotechnologies)
T5 sequence (Q13422 whole entry): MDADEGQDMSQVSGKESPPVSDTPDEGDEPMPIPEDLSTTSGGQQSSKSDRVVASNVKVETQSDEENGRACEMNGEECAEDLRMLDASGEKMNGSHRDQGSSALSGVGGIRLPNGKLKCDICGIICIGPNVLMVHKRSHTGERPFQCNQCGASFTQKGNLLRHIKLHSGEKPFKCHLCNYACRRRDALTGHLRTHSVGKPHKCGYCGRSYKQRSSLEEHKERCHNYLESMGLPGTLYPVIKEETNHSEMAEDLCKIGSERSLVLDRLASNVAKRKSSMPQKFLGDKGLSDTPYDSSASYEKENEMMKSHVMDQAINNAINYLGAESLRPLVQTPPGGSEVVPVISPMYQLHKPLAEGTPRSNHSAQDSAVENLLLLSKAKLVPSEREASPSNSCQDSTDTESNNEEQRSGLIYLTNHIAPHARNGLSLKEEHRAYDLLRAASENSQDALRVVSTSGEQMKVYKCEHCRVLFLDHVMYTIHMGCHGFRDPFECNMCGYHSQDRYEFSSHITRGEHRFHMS
T5 sequence (Q96SW2 whole entry): as the sequence (Q96SW2 whole entry) above
T5 sequence (Q16531 whole entry partner): as the sequence (Q16531 whole entry partner) above

WEE1 = biological target: T6, WEE1 (Homo sapiens, UniProt P30291+Q96SW2); test: as above; type: cell-based
T6 construct: effects of the compounds of the present disclosure on the expression of target proteins in cells; endogenous in cells; host or cells: human PBMCs (Milecell Biotechnologies)
T6 sequence (P30291 whole entry): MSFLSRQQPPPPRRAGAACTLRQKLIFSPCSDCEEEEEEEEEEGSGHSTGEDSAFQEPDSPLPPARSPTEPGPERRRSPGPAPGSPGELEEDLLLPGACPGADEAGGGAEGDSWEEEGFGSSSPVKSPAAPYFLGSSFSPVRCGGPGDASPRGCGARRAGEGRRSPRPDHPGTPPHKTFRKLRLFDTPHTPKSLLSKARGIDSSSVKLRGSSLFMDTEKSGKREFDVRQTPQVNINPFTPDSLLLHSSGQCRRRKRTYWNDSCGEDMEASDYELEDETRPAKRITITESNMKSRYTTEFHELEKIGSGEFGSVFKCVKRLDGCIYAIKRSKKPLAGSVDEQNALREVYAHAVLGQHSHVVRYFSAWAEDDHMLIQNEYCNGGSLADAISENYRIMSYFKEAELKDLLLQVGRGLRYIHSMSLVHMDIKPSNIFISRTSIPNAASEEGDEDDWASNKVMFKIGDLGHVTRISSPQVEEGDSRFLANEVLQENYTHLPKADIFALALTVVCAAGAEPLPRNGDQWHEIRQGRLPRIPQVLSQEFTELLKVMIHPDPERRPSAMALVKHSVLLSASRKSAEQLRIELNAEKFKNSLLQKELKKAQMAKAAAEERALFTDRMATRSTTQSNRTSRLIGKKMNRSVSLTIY
T6 sequence (Q96SW2 whole entry): as the sequence (Q96SW2 whole entry) above
T6 sequence (Q16531 whole entry partner): as the sequence (Q16531 whole entry partner) above

[4] = system: Human myeloid monocytic leukemia cell (MV-4-11); test: Tumor cell proliferation inhibition (CellTiter-Meiluncell luminescent cell viability assay); conditions: MV4-11, 96 h; for inhibition at 0.01 µM: read-out: Inhibition Rate at 10 nM (%); for inhibition at 0.5 µM: read-out: Inhibition Rate at 500 nM (%)
GSPT1 = test: Western blot, degradation of substrate protein in hPBMCs; type: cell-based, Human
[5] = system: Human acute T lymphocytic leukemia cell (Molt4); test: Tumor cell proliferation inhibition (CellTiter-Meiluncell luminescent cell viability assay); conditions: MOLT-4, 96 h; for inhibition at 0.01 µM: read-out: Inhibition Rate at 10 nM (%); for inhibition at 0.5 µM: read-out: Inhibition Rate at 500 nM (%)
Protocol: The tumor cells used herein were cultured in a cell culture medium listed in table 2 at 37°C in an incubator with 5% CO2. Prior to experimentation, all cell lines used were correctly identified by STR profiling, and tested negative for mycoplasma contamination using a mycoplasma detection kit through routine screenings.
The IC50 values of the compounds of the present disclosure (including the compounds in Table 1 and Examples) were determined using the CellTiter-Meiluncell Luminescent Cell Viability Assay Kit from Dalian Meilun Biotech Co., Ltd. The detailed procedure is as follows: Tumor cells were seeded in 96-well cell culture plates at the densities specified in Table 3. On the following day, the test compounds of the present disclosure were subjected to serial dilution. The dilution can be performed according to one of the following two methods: • (1) The first dilution method: The test compounds of the present disclosure (including the compounds in Table 1 and Examples) were subjected to 5-fold serial dilutions starting from a highest concentration of 2000 µM, resulting in a total of 9 concentrations from high to low (2000, 400, 80, 16, 3.2, 0.64, 0.128, 0.0256, 0.00512 µM). Subsequently, 0.5 µL of the test compound dilution was transferred into the 96-well plate containing the cells, with each well containing 100 µL of cell culture medium. […] Into the 96-well plate, the diluted test compounds and corresponding detection reagents were added, resulting in final test compound concentrations of 500 nM and 10 nM, respectively. The experimental procedure is described below using the diluted 2 µM test compound as an example.
0.5 µL of the aforementioned diluted compound of the present disclosure (including the compounds in Table 1 and Examples) was added to the seeded cells in 100 µL of medium, yielding a final test compound concentration of 10 nM. After the cells were treated with the compounds of the present disclosure for a specified period, the cell viability assay reagent was added to the culture medium according to the kit's instructions to determine cell viability. […] All controls were treated using the same procedure as the compounds of the present disclosure. The growth inhibition curves for the compounds of the present disclosure were plotted using Prism GraphPad software, and the IC50 values were calculated therefrom.

[6] = system: Human breast cancer cell (MCF-7); test: as above; conditions: MCF7, 96 h; for inhibition at 0.5 µM: read-out: Inhibition Rate at 500 nM (%)
[7] = Western blot, 24 hours of compound treatment, compounds tested at 50 nM and 500 nM (concentration for the table not stated)
[8] = 24 hours treatment, compounds at 50 nM and 500 nM (concentration behind the class not stated)

SMILES: O=C1CCC(N2Cc3cc(CN4CC=C(c5ccnc(Cl)c5Cl)CC4)ccc3C2=S)C(=O)N1 (centres unmarked) [GT-08482, 3-(5-((2',3'-dichloro-3,6-dihydro-[4,4'-bipyridin]-1(2H)-yl)methyl)-1-thioxoisoindolin-2-yl)piperidine-2,6-dione]
inhibition at 0.01 µM [1]: 10 to 20%
inhibition at 0.5 µM [1]: 60 to 70%
inhibition at 0.01 µM [2]: 50 to 60%
inhibition at 0.5 µM [2]: 80 to 100%
inhibition at 0.5 µM [3]: 60 to 80%
inhibition at 2 µM [3]: 80 to 100%
CK1α substrate protein remaining % (CK1α; [7]): B (80%< substrate protein remaining %≤ 100%)
IKZF3 substrate protein remaining % (IKZF3; [7]): B (80%< substrate protein remaining %≤ 100%)
IKZF2 substrate protein remaining % (IKZF2; [7]): B (80%< substrate protein remaining %≤ 100%)
IKZF 1 substrate protein remaining % (IKZF1; [7]): B (80%< substrate protein remaining %≤ 100%)
Wee1 substrate protein remaining % (WEE1; [7]): A (0% ≤ substrate protein remaining % ≤ 80%)
inhibition at 0.01 µM [4]: 40 to 60%
inhibition at 0.5 µM [4]: 80 to 100%
GSPT1 substrate protein remaining % (GSPT1; [7]): A (0% ≤ substrate protein remaining % ≤ 80%)
inhibition at 0.01 µM [5]: -5 to 0%
inhibition at 0.5 µM [5]: 80 to 100%

SMILES: O=C1CCC(N2Cc3cc(CN4CC=C(c5cncc(Cl)c5Cl)CC4)ccc3C2=S)C(=O)N1 (centres unmarked) [GT-08489, 3-(5-((4,5-dichloro-3',6'-dihydro-[3,4'-bipyridin]-1'(2'H)-yl)methyl)-1-thioxoisoindolin-2-yl)piperidine-2,6-dione]
inhibition at 0.01 µM [1]: 0 to 5%
inhibition at 0.5 µM [1]: 70 to 80%
inhibition at 0.01 µM [2]: 10 to 20%
inhibition at 0.5 µM [2]: 80 to 100%
inhibition at 0.5 µM [6]: 50 to 60%
inhibition at 0.5 µM [3]: 60 to 80%
inhibition at 2 µM [3]: 80 to 100%
CK1α substrate protein remaining % (CK1α; [7]): B (80%< substrate protein remaining %≤ 100%)
IKZF3 substrate protein remaining % (IKZF3; [7]): A (0% ≤ substrate protein remaining % ≤ 80%)
IKZF2 substrate protein remaining % (IKZF2; [7]): A (0% ≤ substrate protein remaining % ≤ 80%)
IKZF 1 substrate protein remaining % (IKZF1; [7]): B (80%< substrate protein remaining %≤ 100%)
Wee1 substrate protein remaining % (WEE1; [7]): A (0% ≤ substrate protein remaining % ≤ 80%)
inhibition at 0.01 µM [4]: 30 to 40%
inhibition at 0.5 µM [4]: 80 to 100%
GSPT1 substrate protein remaining % (GSPT1; [7]): A (0% ≤ substrate protein remaining % ≤ 80%)
inhibition at 0.01 µM [5]: 0 to 5%
inhibition at 0.5 µM [5]: 80 to 100%

SMILES: O=C1CCC(N2Cc3cc(CN4CC=C(c5cncc(Cl)c5)CC4)ccc3C2=S)C(=O)N1 (centres unmarked) [GT-08490, 3-(5-((5-chloro-3',6'-dihydro-[3,4'-bipyridin]-1'(2'H)-yl)methyl)-1-thioxoisoindolin-2-yl)piperidine-2,6-dione]
inhibition at 0.01 µM [1]: 20 to 30%
inhibition at 0.5 µM [1]: 70 to 80%
inhibition at 0.01 µM [2]: 50 to 60%
inhibition at 0.5 µM [2]: 80 to 100%
inhibition at 0.01 µM ([6]; read-out: Inhibition Rate at 10 nM (%)): 30 to 40%
inhibition at 0.5 µM [6]: 50 to 60%
inhibition at 0.5 µM [3]: 60 to 80%
inhibition at 2 µM [3]: 80 to 100%
CK1α substrate protein remaining % (CK1α; [7]): B (80%< substrate protein remaining %≤ 100%)
IKZF3 substrate protein remaining % (IKZF3; [7]): A (0% ≤ substrate protein remaining % ≤ 80%)
IKZF2 substrate protein remaining % (IKZF2; [7]): A (0% ≤ substrate protein remaining % ≤ 80%)
IKZF 1 substrate protein remaining % (IKZF1; [7]): B (80%< substrate protein remaining %≤ 100%)
Wee1 substrate protein remaining % (WEE1; [7]): A (0% ≤ substrate protein remaining % ≤ 80%)
inhibition at 0.01 µM [4]: 40 to 60%
inhibition at 0.5 µM [4]: 80 to 100%
GSPT1 substrate protein remaining % (GSPT1; [7]): A (0% ≤ substrate protein remaining % ≤ 80%)
inhibition at 0.01 µM [5]: 0 to 5%
inhibition at 0.5 µM [5]: 80 to 100%

SMILES: O=C1CCC(N2Cc3cc(CN4CC=C(c5ncccc5F)CC4)ccc3C2=S)C(=O)N1 (centres unmarked) [GT-08491, 3-(5-((3-fluoro-3',6'-dihydro-[2,4'-bipyridin]-1'(2'H)-yl)methyl)-1-thioxoisoindolin-2-yl)piperidine-2,6-dione]
inhibition at 0.01 µM [1]: 10 to 20%
inhibition at 0.5 µM [1]: 70 to 80%
inhibition at 0.01 µM [2]: 10 to 20%
inhibition at 0.5 µM [2]: 80 to 100%
inhibition at 0.5 µM [6]: 40 to 50%
inhibition at 0.5 µM [3]: 80 to 100%
inhibition at 2 µM [3]: 80 to 100%
CK1α substrate protein remaining % (CK1α; [7]): B (80%< substrate protein remaining %≤ 100%)
IKZF3 substrate protein remaining % (IKZF3; [7]): B (80%< substrate protein remaining %≤ 100%)
IKZF2 substrate protein remaining % (IKZF2; [7]): B (80%< substrate protein remaining %≤ 100%)
IKZF 1 substrate protein remaining % (IKZF1; [7]): B (80%< substrate protein remaining %≤ 100%)
Wee1 substrate protein remaining % (WEE1; [7]): A (0% ≤ substrate protein remaining % ≤ 80%)
inhibition at 0.01 µM [4]: 18 to 25%
inhibition at 0.5 µM [4]: 80 to 100%
GSPT1 substrate protein remaining % (GSPT1; [7]): A (0% ≤ substrate protein remaining % ≤ 80%)
inhibition at 0.01 µM [5]: 20 to 30%
inhibition at 0.5 µM [5]: 80 to 100%

inhibition at 0.5 µM [3]: 40 to 53%
inhibition at 2 µM [3]: 80 to 100%
SMILES: Cc1cccc(N2CCN(Cc3ccc4c(c3)CN(C3CCC(=O)NC3=O)C4=S)CC2)c1 (centres unmarked) [GT-08602, 3-(1-thioxo-5-((4-(m-tolyl)piperazin-1-yl)methyl)isoindolin-2-yl)piperidine-2,6-dione]
inhibition at 0.01 µM [1]: 10 to 20%
inhibition at 0.5 µM [1]: 70 to 80%
inhibition at 0.01 µM [2]: 10 to 20%
inhibition at 0.5 µM [2]: 80 to 100%
CK1α substrate protein remaining % (CK1α; [7]): B (80%< substrate protein remaining %≤ 100%)
IKZF3 substrate protein remaining % (IKZF3; [7]): B (80%< substrate protein remaining %≤ 100%)
IKZF2 substrate protein remaining % (IKZF2; [7]): B (80%< substrate protein remaining %≤ 100%)
IKZF 1 substrate protein remaining % (IKZF1; [7]): B (80%< substrate protein remaining %≤ 100%)
Wee1 substrate protein remaining % (WEE1; [7]): A (0% ≤ substrate protein remaining % ≤ 80%)
inhibition at 0.01 µM [4]: 18 to 25%
inhibition at 0.5 µM [4]: 80 to 100%
GSPT1 substrate protein remaining % (GSPT1; [7]): A (0% ≤ substrate protein remaining % ≤ 80%)
inhibition at 0.01 µM [5]: -5 to 0%
inhibition at 0.5 µM [5]: 80 to 100%

inhibition at 0.5 µM [3]: 40 to 53%
inhibition at 2 µM [3]: 80 to 100%
SMILES: O=C1CCC(N2Cc3cc(CN4CCC(c5cccc(Br)c5)CC4)ccc3C2=S)C(=O)N1 (centres unmarked) [GT-08617, 3-(5-((4-(3-bromophenyl)piperidin-1-yl)methyl)-1-thioxoisoindolin-2-yl)piperidine-2,6-dione]
inhibition at 0.01 µM [1]: 10 to 20%
inhibition at 0.5 µM [1]: 50 to 60%
inhibition at 0.01 µM [2]: 30 to 40%
inhibition at 0.5 µM [2]: 80 to 100%
CK1α substrate protein remaining % (CK1α; [7]): B (80%< substrate protein remaining %≤ 100%)
IKZF3 substrate protein remaining % (IKZF3; [7]): B (80%< substrate protein remaining %≤ 100%)
IKZF2 substrate protein remaining % (IKZF2; [7]): B (80%< substrate protein remaining %≤ 100%)
IKZF 1 substrate protein remaining % (IKZF1; [7]): B (80%< substrate protein remaining %≤ 100%)
Wee1 substrate protein remaining % (WEE1; [7]): B (80%< substrate protein remaining %≤ 100%)
inhibition at 0.01 µM [4]: 5 to 10%
inhibition at 0.5 µM [4]: 80 to 100%
GSPT1 substrate protein remaining % (GSPT1; [7]): A (0% ≤ substrate protein remaining % ≤ 80%)
inhibition at 0.01 µM [5]: 20 to 30%
inhibition at 0.5 µM [5]: 80 to 100%

inhibition at 0.5 µM [3]: 60 to 80%
inhibition at 2 µM [3]: 80 to 100%
SMILES: O=C1CCC(N2Cc3cc(CN4CCN(c5n[nH]c6cc(F)ccc56)CC4)ccc3C2=S)C(=O)N1 (centres unmarked) [GT-09260, 3-(5-((4-(6-fluoro-1H-indazol-3-yl)piperazin-1-yl)methyl)-1-thioxoisoindolin-2-yl)piperidine-2,6-dione]
inhibition at 0.01 µM [1]: 5 to 10%
inhibition at 0.5 µM [1]: 40 to 50%
inhibition at 0.01 µM [2]: 10 to 20%
inhibition at 0.5 µM [2]: 80 to 100%
CK1α substrate protein remaining % (CK1α; [8]): B (80%< substrate protein remaining %≤ 100%)
IKZF3 substrate protein remaining % (IKZF3; [8]): B (80%< substrate protein remaining %≤ 100%)
IKZF2 substrate protein remaining % (IKZF2; [8]): B (80%< substrate protein remaining %≤ 100%)
IKZF 1 substrate protein remaining % (IKZF1; [8]): B (80%< substrate protein remaining %≤ 100%)
Wee1 substrate protein remaining % (WEE1; [8]): B (80%< substrate protein remaining %≤ 100%)
inhibition at 0.01 µM [4]: 18 to 25%
inhibition at 0.5 µM [4]: 80 to 100%
GSPT1 substrate protein remaining % (GSPT1; [8]): A (0% ≤ substrate protein remaining % ≤ 80%)
inhibition at 0.01 µM [5]: 20 to 30%
inhibition at 0.5 µM [5]: 80 to 100%
